The source of these data is US9469878B2, “Methods of treating cancer comprising targeting NQO1” (The Board of Regents of the University of Texas System, priority 2010, dated 2016).

Data set [1] relates to MDA-MB-231 cells expressing NQO1 (231+). Briefly: Long term survival assay. The data set is classed as cell-based, human. The note with it: 231-NQ+ cells. The method, then:
Cells were cultured and treated as described above.
Data were expressed as relative survival (treated/control×100%).

In data set [2] the test system is PARP1 in A549 NSCLC cells. Briefly: PAR formation, Western blot. The data set is classed as cell-based, human. To be noted: 25 mM, β-lap-treated A549 NSCLC cells. The method, then: Whole-cell extracts were prepared, proteins separated by SDSPAGE, and Western blots developed using SuperSignal® West Pico Chemiluminescent substrate (Thermo Scientific, Rockford, Ill.), and exposed using Autoradiography Film (Denville Scientific Inc., Metuchen, N.J.). An anti-human NQO1 antibody was kindly provided to us by Dr. David Ross (University of Colorado Health Science Center, Denver, Colo.) and used at a 1:5000 dilution overnight at 4° C.

Data set [3] concerns the target NQO1 (Homo sapiens, UniProt P15559). Briefly: NQO1 enzyme assays using β-lapachone or the standard menadione substrates. In kind it is biochemical. Further details: S9 Supernatants were prepared from cells in mid-log to late log phase growth; endogenous in cells; host or cells: cancer cell lines, mostly from a non-small cell lung cancer panel; S9 supernatants. The note with it: menadione as substrate. The method, then: (§1) S9 Supernatants were prepared from cells in mid-log to late log phase growth. […] The cell suspensions were sonicated on ice four times, using 10-s pulses, and then centrifuged at 14,000×g for 20 min. The S9 supernatants were aliquoted into microcentrifuge tubes and stored at −80° C. until used. A 1× protease inhibitor cocktail was added to prevent enzyme activity degradation. […] Menadione was used as the electron acceptor. NADH was used as the electron donor.
(§2) NQO1 activity was measured using NADH (200 μM) as the immediate electron donor and menadione (10 μM) as the intermediate electron acceptor. […] Biochem. Biophys. […] NADH: cytochrome b5 reductase was measured using NADH (200 μM) as the electron donor, and […] was measured using NADPH (200 μM) as electron donor (45) in a Beckman DU 640 spectrophotometer (Beckman Coulter, Fullerton, Calif.). Reactions were carried out at 37° C. and were initiated by the addition of S9 supernatants. Varying amounts of supernatants, from 10 to 40 μL, were used to ensure linearity of rates with protein concentration. […] Results shown are the average enzyme activity for three separate cell extractions±S.D. or both values from duplicate experiments.
(§3) Cell lines, mostly from a 5-panel nonsmall cell lung cancer panel from the UT Southwestern SPORE, were assessed for NQO1 polymorphism status and then monitored for NQO1 enzyme assays using β-lapachone or the standard menadione substrates. […] NQO1*2/*2 and *3/*3 polymorphisms were detected from NQO1 *1/*1 wild-type sequences by PCR-RFLP. Genomic DNA was extracted from the cells using Qiagen spin columns. Using previously described oligonucleotide primers, PCR products underwent gel electrophoresis. Final genotyping was determined based on the size and pattern of separated bands diagnostic for *1/*1 (wild-type), or polymorphic *2/*2 or *3/*3 NQO1 polymorphisms.

In data set [4] the target is T1, NQO1 (Homo sapiens, UniProt P15559, R139W).
T1 construct: S9 Supernatants were prepared from cells in mid-log to late log phase growth; endogenous in cells; host or cells: cancer cell lines, mostly from a non-small cell lung cancer panel (e.g. Calu-3); S9 supernatants
T1 sequence (P15559 whole entry R139W): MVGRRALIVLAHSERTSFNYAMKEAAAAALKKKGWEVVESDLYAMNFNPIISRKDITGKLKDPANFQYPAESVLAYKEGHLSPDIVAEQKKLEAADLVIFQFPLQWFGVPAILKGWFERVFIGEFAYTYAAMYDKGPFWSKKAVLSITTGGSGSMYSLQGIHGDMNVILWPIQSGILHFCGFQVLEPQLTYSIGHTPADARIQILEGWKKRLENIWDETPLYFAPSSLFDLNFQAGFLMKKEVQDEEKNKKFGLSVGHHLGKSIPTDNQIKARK
Described as above. The data set is classed as biochemical. To be noted: menadione as substrate. The method, then: as §1, §2, §3

For data set [5], the target named is T2, NQO1 (Homo sapiens, UniProt P15559, P187S).
T2 construct: S9 Supernatants were prepared from cells in mid-log to late log phase growth; endogenous in cells; host or cells: cancer cell lines, mostly from a non-small cell lung cancer panel; S9 supernatants
T2 sequence (P15559 whole entry P187S): as the sequence (P15559 whole entry R139W) above, with W139R, P187S counted along it
Described as above. The data set is classed as biochemical. To be noted: single value given. The method, then: as §1, §2, §3

The subject of data set [6] is NQO1. The data set is described as above. The data set is classed as biochemical, human. To be noted: menadione as substrate. The method, then:
as §1, §2, §3

In data set [7] the test system is Human (shown) or mouse rbs. Briefly: Hemolysis of red blood cells. The note with it: rbs incubated with HPβCD alone, HPβCD-β-lap, or β-lap alone in DMSO. In kind it is cell-based. The method, then:
Human (shown) or mouse rbs were incubated with HPβCD alone or HPβCD-β-lap, or β-lap alone in DMSO.

Data set [8] deals with PARP1 in MCF-7 cells. The data set can be described thus: Western-blot analyses for PARP1 cleavage. In kind it is cell-based, human. To be noted: pre-treatment, 4 μM β-lap 2 h pulse. The method, then: For Western-blot analyses for PARP1 cleavage-MCF-7 cells seeded in 10 cm dishes were treated with 4 μM β-lap in the absence or presence of 1000 U of catalase dissolved in hepes buffer pH 7.4 for 2 h. Cells were then given fresh media and incubated at 37° C. for 24 h. Cells were then harvested in PARP1 lysis buffer. Lysates were resolved in 10% SDS-PAGE and immunoblotted onto PVDF membranes and probed with a monoclonal PARP1 antibody (SC-8007). […] Relative PAR levels were calculated by densitometric analyses by NIH ImageJ using PARP1 loading controls. Measurements were normalized to t=0 levels. Western blots shown are representative of separate experiments performed at least three times.

Data set [9] has as its system PC-3 cells. Briefly: Intracellular NAD+ and ATP levels. In kind it is cell-based, human. The note with it: pre- and co-treatment, 2 or 3 Gy+3 μM β-lap. The method, then:
ATP levels were analyzed from whole-cell extracts using CellTiter-Glo Luminescent Cell Viability Assays (Promega, Madison, Wis.) following the manufacture's instructions. Data were graphed as means±SE from at least three independent experiments in triplicates.

NQO1 (Homo sapiens, UniProt P15559), sequence (P15559 whole entry): as the sequence (P15559 whole entry R139W) above, with W139R counted along it

As to `CC(=O)N[C@@H](CS)C(=O)O` [NAC, N-acetyl-L-cysteine], the “Effect on lethal effects of β-lap” value in data set [1] (pre- and co-treatments) was “protected against the lethal effects of 2 μM β-lap, but not 3 μM”.
As to `NC(=O)c1cccc(N)c1` [3-aminobenzamide], the “Effect on PAR formation” value in data set [2] is “spares and delays PAR formation”.
In the case of `CC1=CC(=O)c2ccccc2C1=O` [Men, menadione], the “NQO1 activity, Men” value was 1234 +/− 40; ND nMoles/min/μg in [3] (H322 *1/*1); 1370 +/− 17; ND nMoles/min/μg in data set [3] (H1648 *1/*1); 1170 ± 30 nmol/min/µg in [3] (H1993 *1/*1); 1340 +/− 20; ND nMoles/min/μg in data set [3] (H2073 *1/*1); 48 ± 3 nmol/min/µg in data set [4] (Calu-3/NSCLC *3/*3); 4.0 ± 1 nmol/min/µg in [4] (H2009/NSCLC *3/*3). The “NQO1 activity, Men” value was 98 ± 17 nmol/min/µg in [4] (HCC1171/NSCLC *3/*3); 32 ± 2 nmol/min/µg in data set [4] (T47D/BreastCancer *3/*3); less than 1 ± 0.01 nmol/min/µg in data set [5] (H596/NSCLC *2/*2); less than 1 ± 0.01 nmol/min/µg in data set [5] (H2882/NSCLC *2/*2); less than 1 ± 0.01 nmol/min/µg in data set [5] (HCC366/NSCLC *2/*2); 1 ± 0.05 nmol/min/µg in [5] (MDA-MB-231/Breast *2/*2). For the same compound, the “NQO1 activity, Men” value is less than 1 ± 0.01 nmol/min/µg in [5] (MDA-MB-468/Breast *2/*2), 169 +/− 17; ND nMoles/min/μg in data set [6] (H292 *1/*2) and 148 ± 14 nmol/min/µg in data set [6] (HCC44 *1/*2).
Turning to hydroxypropyl-β-cyclodextrin [HPβCD], in data set [7], the Hemolysis result is “caused significant hemolyses”.
With Z-VAD, the “Effect on β-lap-mediated proteolysis of PARP1 and lethality” value in data set [8] was “ineffective”.
Regarding `O=C1NCCc2c(OCCCCN3CCCCC3)cccc21` [DPQ, 3,4-dihydro-5[4-(1-piperindinyl)butoxy]-1(2H)-isoquinoline], the “Effect on synergistic losses of ATP” value in [9] is recorded as “prevented”.
For `CC(=O)OCOC(=O)CN(CC(=O)OCOC(C)=O)c1ccccc1OCCOc1ccccc1N(CC(=O)OCOC(C)=O)CC(=O)OCOC(C)=O` [BAPTA-AM], the “Effect on β-lap-mediated proteolysis of PARP1 and lethality” value in [8] is “prevented”.
As to Catalase, in [1] (exogenous catalase), the “Catalase amount that significantly protected cells from the lethal effects of β-lap” value was not below 500 units.
